Experimental data taken from US10894807B2 (Siemens Medical Solutions USA, Inc., priority 2011, dated 2021).

Biological target: human PSMA (Homo sapiens (Human), UniProt Q04609)
Assay: Enzymatic assay for in vitro evaluation of PSMA inhibitors (fluorescent assay of PSMA activity, NAAG substrate, OPA detection of glutamate)
Type: biochemical
Settings: for PSMA Blkg % (10 μM): compound at 10 μM

Sequence of human PSMA (Q04609 whole entry): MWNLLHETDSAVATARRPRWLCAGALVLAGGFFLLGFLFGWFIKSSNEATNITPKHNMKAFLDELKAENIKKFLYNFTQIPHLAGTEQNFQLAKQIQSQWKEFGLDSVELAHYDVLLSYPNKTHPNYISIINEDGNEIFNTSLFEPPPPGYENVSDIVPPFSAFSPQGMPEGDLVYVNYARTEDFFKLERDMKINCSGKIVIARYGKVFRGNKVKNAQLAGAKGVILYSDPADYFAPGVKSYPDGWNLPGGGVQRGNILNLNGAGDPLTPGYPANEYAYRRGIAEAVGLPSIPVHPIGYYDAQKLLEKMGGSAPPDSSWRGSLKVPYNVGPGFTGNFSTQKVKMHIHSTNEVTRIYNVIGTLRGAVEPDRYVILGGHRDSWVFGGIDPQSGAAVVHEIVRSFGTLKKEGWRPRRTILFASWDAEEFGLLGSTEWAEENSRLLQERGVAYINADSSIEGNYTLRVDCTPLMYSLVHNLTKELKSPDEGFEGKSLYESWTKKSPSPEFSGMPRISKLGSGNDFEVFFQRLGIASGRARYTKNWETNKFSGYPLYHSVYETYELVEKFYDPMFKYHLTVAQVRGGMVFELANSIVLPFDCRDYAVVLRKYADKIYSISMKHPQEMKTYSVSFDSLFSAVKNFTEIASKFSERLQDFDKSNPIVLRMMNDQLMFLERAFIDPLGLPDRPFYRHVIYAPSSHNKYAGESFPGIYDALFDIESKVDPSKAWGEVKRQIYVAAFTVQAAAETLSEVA

CCC1(CC)C(=O)N([C@@H](CCCCn2cc(CCCF)nn2)C(=O)O)C(=O)N([C@@H](CCC(=O)O)C(=O)O)C1=O [P150, (S)-2-(3-((S)-1-Carboxy-5-(4-(3-fluoropropyl)-1H-1,2,3-triazol-1-yl)pentyl)-5,5-diethyl-2,4,6-trioxotetrahydropyrimidin-1(2H)-yl)pentanedioic Acid]
PSMA Blkg % (10 μM): 9%

CCC1(CC)C(=O)N([C@@H](CCCCn2cc(COCCOCCNc3ccc([N+](=O)[O-])cc3[N+](=O)[O-])nn2)C(=O)O)C(=O)N([C@@H](CCC(=O)O)C(=O)O)C1=O [P151, (S)-2-(3-((S)-1-Carboxy-5-(4-((2-(2-(2,4-dinitrophenylamino)ethoxy)ethoxy)methyl)-1H-1,2,3-triazol-1-yl)pentyl)-5,5-diethyl-2,4,6-trioxotetrahydropyrimidin-1(2H)-yl)pentanedioic Acid]
PSMA Blkg % (10 μM): 17%

O=C(O)CC[C@@H](C(=O)O)N(O)C(=O)N[C@@H](CCCCNC(=O)c1ccc(-n2cc(CCCF)nn2)cc1)C(=O)O [P152, (S)-2-(3-((S)-1-Carboxy-5-(4-(4-(3-fluoropropyl)-1H-1,2,3-triazol-1-yl)benzamido)pentyl)-1-hydroxyureido)pentanedioic Acid]
Ki: 128 nM
PSMA Blkg % (10 μM): 93%

N#C/N=C(/N[C@@H](CCCCNC(=O)c1ccc(-n2cc(CCCF)nn2)cc1)C(=O)O)N[C@@H](CCC(=O)O)C(=O)O [P153, (S)-2-(3-((S)-1-Carboxy-5-(4-(4-(3-fluoropropyl)-1H-1,2,3-triazol-1-yl)benzamido)pentyl)-2-cyanoguanidino)pentanedioic Acid]
PSMA Blkg % (10 μM): 63%

O=C(O)CC[C@H](NC(=O)CN(O)C(=O)CCCc1ccc(F)cc1)C(=O)O [P154, (S)-2-(2-(4-(4-Fluorophenyl)-N-hydroxybutanamido)acetamido)pentanedioic Acid]
PSMA Blkg % (10 μM): 50%

O=C(O)CC[C@H](NC(=O)N[C@@H](CCCCNC(=O)c1ccc(F)cc1)C(=O)O)C(=O)O [P155]
Ki: 3.1 nM
PSMA Blkg % (10 μM): 97%

CN(C(=O)N[C@@H](CCC(=O)O)C(=O)O)[C@@H](CCCCNC(=O)c1ccc(F)cc1)C(=O)O [P156, (S)-2-(3-((S)-1-Carboxy-5-(4-fluorobenzamido)pentyl)-3-methylureido)pentanedioic Acid]
Ki: 219 nM
PSMA Blkg % (10 μM): 87%

CC(F)C(=O)Nc1ccc(C(=O)NCCCC[C@@H](C(=O)O)N(O)C(=O)N[C@@H](CCC(=O)O)C(=O)O)cc1 (stereo partly drawn) [P157, (2S)-2-(3-((1S)-1-Carboxy-5-(4-(2-fluoropropanamido)benzamido)pentyl)-3-hydroxyureido)pentanedioic Acid]
Ki: > 313 nM
PSMA Blkg % (10 μM): 79%

CC(F)C(=O)Nc1ccc(C(=O)NCCCCC(C(=O)O)N(C)C(=O)N[C@@H](CCC(=O)O)C(=O)O)cc1 (stereo partly drawn) [P158, (2S)-2-(3-((S)-1-Carboxy-5-(4-(2-fluoropropanamido)benzamido)pentyl)-3-methylureido)pentanedioic Acid]
Ki: 34.4 nM
PSMA Blkg % (10 μM): 99%

CN(C(=O)[C@H](CC(=O)O)NC(=O)c1ccc(-n2cc(CCCF)nn2)cc1)[C@@H](CCC(=O)O)C(=O)O [P159, (S)-2-((S)-3-Carboxy-2-(4-(4-(3-fluoropropyl)-1H-1,2,3-triazol-1-yl)benzamido)-N-methylpropanamido)pentanedioic Acid]
PSMA Blkg % (10 μM): 39%

CN(C(=O)N[C@@H](CCC(=O)O)C(=O)O)[C@@H](CCCCNC(=O)c1ccc(OCCF)cc1)C(=O)O [P161]
PSMA Blkg % (10 μM): 96%

O=C(O)CC[C@@H](C(=O)O)N(O)C(=O)N[C@@H](CCCCNC(=O)c1ccc(F)cc1)C(=O)O [P162, (S)-2-(3-((S)-1-Carboxy-5-(4-fluorobenzamido)pentyl)-1-hydroxyureido)pentanedioic Acid]
Ki: > 531 nM
PSMA Blkg % (10 μM): 79%

CN(C(=O)[C@H](CC(=O)O)NC(=O)c1ccc(F)cc1)[C@@H](CCC(=O)O)C(=O)O [P163, (S)-2-((S)-3-Carboxy-2-(4-fluorobenzamido)-N-methylpropanamido)pentanedioic Acid]
PSMA Blkg % (10 μM): 0%
